Source: PMC9386018, “A lymphatic-absorbed multi-targeted kinase inhibitor for myelofibrosis therapy” (Nature Communications, 2022)
Several values for one entry are separate records, joined by “and”; a condition that tells them apart may be missing. Equal values may be shown once.

Key:
[1] = tested on: MPL^W515L mouse model of myelofibrosis; assay: MPL^W515L MF mouse model: survival; type: in vivo; details: MPL^W515L mice, oral 400 mg kg^−1 daily
Method: Generation of the MPL^W515L mutant MF mouse model was similar to previously described methods. Briefly, female donor BALB/c mice were treated with 5-fluorouracil at 150 mg kg^−1 intraperitoneal for 5 d before harvesting bone marrow. Hematopoietic stem and progenitor cells were enriched with CD117 magnetic beads (Miltenyi Biotec), transduced with retrovirus containing MSCV-hMPL W515L-IRES-GFP, then 50,000 transduced HSPCs along with 300,000 total non-stem cells were injected intravenously into lethally irradiated female BALB/c recipients. Development of MF was evaluated by spleen volumes using MRI beginning ~14 d following bone marrow transplantation (BMT) as outlined below, continuing weekly until end of the study. Mice were separated into equal groups based on spleen size ~14–21 d post-BMT, then treated with vehicle (Maisine CC) or LP-182 at 400 mg kg^−1 daily by oral gavage for 14–28 d or until mice were euthanized using guidelines for end stage illness and humane endpoints. Untreated healthy control animals were used for experimental comparisons. […] Soluble protein extracts were isolated by centrifugation at 15,000 x g for 15 min at 4 °C, quantified using Micro BCA protein assay (Thermo Scientific), then mixed with reducing 6X SDS-PAGE loading dye, heated for 8 min at 95 °C, and stored at −20 °C until immuno-blot analysis. […]

[2] = molecular target: Target kinase isoforms (PI3K, mTOR, RAF, MEK) (Homo sapiens, UniProt P04049); assay: Target kinase isoforms 10-point IC50 determination (Supplementary Fig. 7); type: biochemical; details: CRAF
Outline: (§1)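 Kinase activity across a 10-point dose series was corrected and normalized to vehicle-treated controls. IC50 values were derived by non-linear regression of percent activity. Kinome-wide percent inhibition was averaged over replicates.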

[3] = molecular target: Target kinase isoforms (PI3K, mTOR, RAF, MEK) (Homo sapiens, UniProt P36507); assay: as above; type: biochemical; details: MEK2, replicates
Outline: as §1

Target kinase isoforms (PI3K, mTOR, RAF, MEK) (Homo sapiens, UniProt P04049), sequence (P04049 whole entry, canonical isoform): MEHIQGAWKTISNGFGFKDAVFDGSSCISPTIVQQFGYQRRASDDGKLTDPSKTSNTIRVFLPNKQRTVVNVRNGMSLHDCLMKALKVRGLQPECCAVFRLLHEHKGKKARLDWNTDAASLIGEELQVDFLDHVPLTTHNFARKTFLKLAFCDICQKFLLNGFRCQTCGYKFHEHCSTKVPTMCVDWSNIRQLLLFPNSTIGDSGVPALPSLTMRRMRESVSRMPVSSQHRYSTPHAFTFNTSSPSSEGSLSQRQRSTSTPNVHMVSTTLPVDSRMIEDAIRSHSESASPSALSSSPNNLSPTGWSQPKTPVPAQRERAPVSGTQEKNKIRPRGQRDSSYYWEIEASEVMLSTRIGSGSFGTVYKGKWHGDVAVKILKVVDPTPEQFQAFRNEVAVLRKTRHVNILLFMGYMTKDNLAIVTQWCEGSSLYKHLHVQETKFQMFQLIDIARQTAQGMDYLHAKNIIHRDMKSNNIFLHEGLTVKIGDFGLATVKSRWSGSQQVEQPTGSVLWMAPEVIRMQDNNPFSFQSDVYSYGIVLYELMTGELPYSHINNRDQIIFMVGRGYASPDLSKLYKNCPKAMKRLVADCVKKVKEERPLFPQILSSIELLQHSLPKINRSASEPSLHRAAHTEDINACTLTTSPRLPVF
Target kinase isoforms (PI3K, mTOR, RAF, MEK) (Homo sapiens, UniProt P36507), sequence (P36507 whole entry, canonical isoform): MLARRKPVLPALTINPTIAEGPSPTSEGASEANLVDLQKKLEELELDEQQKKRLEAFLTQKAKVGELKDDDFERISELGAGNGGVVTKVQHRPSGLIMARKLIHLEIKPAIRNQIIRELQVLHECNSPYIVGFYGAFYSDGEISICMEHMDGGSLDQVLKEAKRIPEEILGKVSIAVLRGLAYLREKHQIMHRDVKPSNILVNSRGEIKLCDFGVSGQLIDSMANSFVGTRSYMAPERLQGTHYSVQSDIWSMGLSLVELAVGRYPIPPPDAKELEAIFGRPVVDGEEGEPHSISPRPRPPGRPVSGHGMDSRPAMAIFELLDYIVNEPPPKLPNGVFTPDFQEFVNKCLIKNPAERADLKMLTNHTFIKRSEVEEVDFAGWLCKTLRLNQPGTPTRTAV

O=C(NOCCOCCOCCOCCC(=O)N1CCN(c2cnc3ccc(-c4cnc(Cl)c(NS(=O)(=O)c5ccc(F)cc5)c4)cc3n2)CC1)c1ccc(F)c(F)c1Nc1ccc(I)cc1F [LP-182, N-(2-(2-(2-(3-(4-(7-(6-chloro-5-((4-fluorophenyl)sulfonamido)pyridin-3-yl)quinoxalin-2-yl)piperazin-1-yl)-3-oxopropoxy)ethoxy)ethoxy)ethoxy)-3,4-difluoro-2-((2-fluoro-4-iodophenyl)amino)benzamide]
overall survival (Kaplan-Meier) [1]: significantly improved overall survival
survival to planned end of study ([1]; 28 d treatment): survived 50 d post-transplant
activity at 0.000495 µM ([2]; concentration 0.495 nM, replicates): 97%
Kinase Activity (%) ([2]; concentration 0.495 nM, replicates, 0.000495 µM): 102% and 93% and 92% and 98%
activity at 0.00152 µM ([2]; concentration 1.52 nM, replicates): 100%
Kinase Activity (%) ([2]; concentration 1.52 nM, replicates, 0.00152 µM): 93% and 94%
activity at 0.00457 µM ([2]; concentration 4.57 nM, replicates): 96%
Kinase Activity (%) ([2]; concentration 4.57 nM, replicates, 0.00457 µM): 94% (2×) and 89% and 91% and 93%
Kinase Activity (%) ([2]; concentration 41.2 nM, replicates, 0.0412 µM): 56% and 79% and 66% and 72% and 70% and 71%
activity at 0.123 µM ([2]; concentration 123 nM, replicates): 31%
Kinase Activity (%) ([2]; concentration 123 nM, replicates, 0.123 µM): 30% and 34% (3×) and 32%
activity at […] ([2]; concentration 370 nM, replicates): 7%
Kinase Activity (%) ([2]; concentration 1110 nM, replicates, 1.11 µM): 1% (2×) and 3% and 0% and 2% (2×)
Kinase Activity (%) CRAF ([2]; concentration 3330 nM, 3.33 µM): 0% and -2% and -1%
Kinase Activity (%) CRAF ([2]; concentration 10000 nM, 10 µM): 3% and 0% and 1% and -1%
activity at 0.000495 µM ([3]; concentration 0.495 nM): 90%
Kinase Activity (%) ([3]; concentration 0.495 nM, 0.000495 µM): 96% (2×) and 93% and 95%
activity at 0.00152 µM ([3]; concentration 1.52 nM): 89%
Kinase Activity (%) ([3]; concentration 1.52 nM, 0.00152 µM): 91% and 95% and 92% and 94%
activity at 0.00457 µM ([3]; concentration 4.57 nM): 87%
Kinase Activity (%) ([3]; concentration 4.57 nM, 0.00457 µM): 96% and 91% and 88%
activity at 0.0412 µM ([3]; concentration 41.2 nM): 68%
Kinase Activity (%) ([3]; concentration 41.2 nM, 0.0412 µM): 64% and 78% (2×) and 82% and 72%
Kinase Activity (%) ([3]; concentration 123 nM, 0.123 µM): 45% and 36% and 54% and 60% and 51% and 56%
activity at 1.11 µM ([3]; concentration 1110 nM): 6%
Kinase Activity (%) ([3]; concentration 1110 nM, 1.11 µM): 8% and 12% (2×) and 10%
Kinase Activity (%) ([3]; concentration 3330 nM, 3.33 µM): 1% (3×) and 2% (2×) and 0%
Kinase Activity (%) ([3]; concentration 10000 nM, 10 µM): 2% (2×) and 0% (2×) and -1% and 1%
